The subject of one data set is Lennox-Gastaut syndrome. The note with it: one child with Lennox-Gastaut syndrome, CBD in an oily solution; cited from earlier work.
For data set [1], the system named is seizures. The note with it: 200 mg/day pure CBD, four adult patients; seizure frequency unchanged in the remainder; cited from earlier work.
Data set [2] relates to seizures after pro-convulsant drugs or an electric current. The note with it: mice; cited from earlier work.
The subject of data set [3] is seizures. The note with it: 200 mg/day pure CBD, twelve institutionalized adult patients, open label; cited from earlier work.
Data set [4] can be described thus: Solubility of drug substance in water. Format: physicochemical. An excerpt: The drug substance, CBD is insoluble in water. Sesame oil was selected as an excipient to solubilize the drug substance.
Data set [5] has as its system seizures associated with Aicardi Syndrome. Put plainly: Expanded access compassionate use program: CBD added to baseline AED regimen, seizure frequency from seizure diaries. Format: in vivo, human. How it is done:
Of 137 children and young adults with severe, childhood onset treatment-resistant epilepsy (TRE), 14 suffered from Aicardi syndrome. These subjects were tested with a highly purified extract of cannabidiol (CBD) obtained from a cannabis plant. The participants in the study were part of an expanded access compassionate use program for CBD.
All of these patients diagnosed with Aicardi Syndrome presented with multiple seizure types which included
focal seizures with impairment; infantile spasm; clonic seizures; tonic seizures; tonic-clonic seizures; atonic seizures; myoclonic seizures; absence seizures; and focal seizures evolving to secondary generalised seizures.
All patients entered a baseline period of 4 weeks when parents/caregivers kept prospective seizure diaries, noting all countable motor seizure types.
The patients then received a highly purified CBD extract (greater than 98% CBD w/w) in sesame oil, of known and constant composition, at a dose of 5 mg/kg/day in addition to their baseline anti-epileptic drug (AED) regimen.
Laboratory testing for hematologic, liver, kidney function, and concomitant AED levels was performed at baseline, and after CBD therapy.
All patients were taking at least two concomitant anti-epileptic drugs. These included clobazam; levetiracetam; topiramate; stiripentol; phenobarbital; lacsamide; valproic acid; zonisamide. The average number of concomitant antiepileptic drugs being taken was 2.7.
There were 14 children and young adult patients who received at least 3 months of treatment all of whom suffered from treatment-resistant epilepsy which is characterised by Aicardi Syndrome.
The change from baseline in the number of different seizures and total number of seizures after 12 weeks treatment are summarized in Table 7 below.

The test system of another data set is generalized epilepsy. The note with it: eight adult patients with generalized epilepsy; cited from earlier work.
In data set [6] the test system is seizures. The note with it: Consroe et al., 1977; cited from earlier work.
Where [7] appears, read: 14 Aicardi Syndrome patients, after 12 weeks treatment, CBD 5 up to 25 mg/kg/day plus concomitant AED.
Where [8] appears, read: Aicardi Syndrome patients, after 3 months of therapy.

Each structure is given as a SMILES string.

Regarding `C=C(C)[C@@H]1CCC(C)=C[C@H]1c1c(O)cc(CCCCC)cc1O` [CBD, Cannabidiol], the seizure frequency result in the data set on Lennox-Gastaut syndrome is “improvement”. In the data set on seizures [1], the “patients who became seizure free” value is “two of the four”. Besides, the prevention of seizures result in data set [2] was “able to prevent seizures”. In addition, in the data set with seizures [3], the controlling seizures entry is listed as “ineffective”. Besides, the solubility in water result in data set [4] is “insoluble”. For the same compound, in data set [5] (setting [7]), the “Average change in baseline (%) Convulsive seizures” value is reported as −77%, the “Average change in baseline (%) Focal seizures with impairment” value is listed as −62%, the “Average change in baseline (%) Infantile spasm” value is listed as −55.5% and the “Average change in baseline (%) Total seizures” value is reported as −69%. Moreover, in data set [5] (setting [8]), the “reduction in convulsive seizures” value is listed as 77%, the “reduction in focal seizures with impairment” value stood at 62% and the “reduction of infantile spasms” value was determined as 55.5%. The “reduction in total seizures” value in data set [5] (Aicardi Syndrome patients, after 3 months of therapy, average decrease) is 69%. In addition, the “focal onset seizures evolving to secondary generalisation” value in data set [5] (one patient, week 12, 47 seizures at baseline, earlier stage of program) is 17 per month. The tonic-clonic seizures in data set [5] (other patient, week 12, 7 seizures at baseline, earlier stage of program) is recorded as 5 per month. Besides, the tonic seizures in data set [5] (other patient, week 12, 67 seizures at baseline, earlier stage of program) is 6 per month. In addition, the “patients with marked reduction of seizures” value in the data set with generalized epilepsy is listed as 4.
On to `CCCCCc1cc(O)c2c(c1)OC(C)(C)[C@@H]1CCC(C)=C[C@@H]21` [THC, Tetrahydro- cannabinol], for which the pro-convulsant effect entry in the data set with seizures [6] is on record as “pro-convulsant”.

The record behind these values is patent publication US10765643B2, “Use of cannabidiol in the treatment of epilepsy” (GW Pharma Limited, priority 2014, dated 2020).
